US10369123B2, “Perk activator for the treatment of neurodegenerative diseases” (DEUTSCHES ZENTRUM FÜR NEURODEGENERATIVE ERKRANKUNGEN E.V. …, priority 2014, dated 2019)

System: 3R/4R MAPT mRNA, splicing factor SRSF2
Assay: Quantitative PCR of MAPT isoforms and splicing factors, annonacin model
Type: cell-based, human
Details: annonacin + PERK activator
Procedure: Nunc™ Nunclon™ Delta 6-well (for protein and mRNA) or 48-well (for cell assays) plates (Thermo Fisher Scientific, Waltham, Mass., USA) were coated with 100 μg/ml poly-L-lysine (Sigma-Aldrich, St. Louis, Mo., USA) and 5 μg/ml fibronectin (Sigma-Aldrich). LUHMES (Lund Human Mesencephalic) cells, derived from human embryonic ventral mesencephalic cells by conditional immortalization (Tet-off v-myc over-expression) were seeded out in a concentration of 130,000 cells/cm^2 to achieve a confluence of 50%. They were then differentiated for 8 days in a medium of DMEM/F12 (Sigma-Aldrich), 1 μg/ml tetracycline, […] and 490 μg/ml dbcAMP into post-mitotic neurons with a dopaminergic phenotype (Lotharius et al. 2005).
For all experiments with annonacin, the medium was replaced during the intoxication period with new medium containing glucose levels reduced to 250 μM, i.e. the physiological concentration in the human brain.
RNA from human tissue samples was extracted by grinding the tissue in liquid nitrogen to a powder and then dissolving it in the RA1 buffer supplied as part of the NucleoSpin® RNA (Macherey Nagel) RNA extraction kit+1% (v/v) 2-mercaptoethanol (Sigma-Aldrich). RNA from cells was extracted by scraping the cells from the culture plate with RA1 buffer+1% (v/v) 2-mercaptoethanol. The remaining extraction procedure was according to the manufacturer's instructions for the NucleoSpin® RNA kit. RNA concentrations were determined using the NanoDrop 2000c Spectrophotometer. The RNA was then transcribed into cDNA with the iScript™ cDNA Synthesis Kit (BioRad) using the manufacturer's instructions. Real-Time PCR was performed on the Applied Biosystems® StepOnePlus™ (Life Technologies) system using TagMan® Universal Master Mix II and TaqMan® primers against total MAPT, MAPT 3R, MAPT 4R, EIF2A, EI2AK3 and ATF4. POL2A and PSCM1 served as reference targets as they were determined to be the most stably expressed across experimental conditions. The results were analyzed using the StepOne Plus software (Life Technologies) and Qbase software (Biogazelle) and were then graphically and statistically analyzed with Prism 6 (GraphPad Software). Absolute quantification was performed by creating a standard curve with plasmids containing either the 2N3R or the 2N4R spliced variant of MAPT (see Table 2). The absolute quantity was computed by deriving the relationship between CT values and absolute quantity with the StepOne Plus software.

Compound: CCN(CC)CCC(=O)N1N=C(c2c(-c3ccccc3)c3cc(Br)ccc3[nH]c2=O)CC1c1ccc(Br)cc1 (centres unmarked) [CCT020312, 6-bromo-3-[5-(4-bromo-phenyl)-1-(3-diethylamino-propionyl)-4,5-dihydro-1H-pyrazol-3-yl]-4-phenyl-1H-quinolin-2-one]
- annonacin-induced increase of splicing factor SRSF2: significantly reduced
- 4R-tau mRNA amount (48 h): reduced
